Data on seven compounds can be found in patent publication US20240262819A1, “NOVEL COMPOUNDS HAVING INHIBITORY ACTIVITY AGAINST GLUCOSYLCERAMIDE SYNTHASE OR PHARMACEUTICALLY ACCEPTABLE SALT THEREOF, PROCESSES FOR PREPARING THE SAME, AND PHARMACEUTICAL COMPOSITIONS COMPRISING THE SAME” (YUHAN CORPORATION, priority 2021, published 2024).

Each structure is given as a SMILES string. Like-named read-outs stand apart in the source and are kept apart here.

In series [1] the test system is GM1 production in Jurkat cells. As to the kind of experiment: cells. The format is cell-based.
The nature of series [2]: Evaluation of blood-brain barrier (BBB) permeability through oral administration. The format is in vivo, mice. The following applies: mice, oral, dose 30 mg/kg, 4 hr; for Kp at 4 h / concentration at 4 h: mouse, in vivo; for Kp at 4 h: read-out: Mean brain-plasma drug ratio at 4 hr. The essentials: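 Mice dosed orally at 10 or 30 mg/10 ml/kg, suspended in 0.5% methyl cellulose with 0.2% Tween 80. Plasma and forebrain homogenate taken 4 hours post-dose, drug measured by LC-MS/MS; brain/plasma ratio calculated from tissue concentrations.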

Series [3] deals with glucosylceramide synthase (GCS) (Homo sapiens (Human), UniProt Q16739). The series can be described thus: Evaluation of inhibitory activities against GCS (A549 cell lysate, NBD C6-ceramide, HPLC). The format is biochemical. In short, it runs like this: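 GCS activity in A549 cell lysate (50 mM HEPES, pH 7.3) with NBD C6-ceramide, reacted 90 min at 37 °C. Lipids were chloroform/methanol-extracted and separated by normal-phase HPLC with fluorescence detection (ex 470/em 530 nm). GlcCer fraction of peak area was normalized between DMSO and ibiglustat, and IC50 obtained by curve fitting.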

[4] abbreviates: read-out: Mean drug concentrations in brain tissue at 4 hr.
The mark [5] stands for this setting: read-out: Mean drug concentrations in plasma at 4 hr.

Sequence of glucosylceramide synthase (GCS) (Q16739 whole entry): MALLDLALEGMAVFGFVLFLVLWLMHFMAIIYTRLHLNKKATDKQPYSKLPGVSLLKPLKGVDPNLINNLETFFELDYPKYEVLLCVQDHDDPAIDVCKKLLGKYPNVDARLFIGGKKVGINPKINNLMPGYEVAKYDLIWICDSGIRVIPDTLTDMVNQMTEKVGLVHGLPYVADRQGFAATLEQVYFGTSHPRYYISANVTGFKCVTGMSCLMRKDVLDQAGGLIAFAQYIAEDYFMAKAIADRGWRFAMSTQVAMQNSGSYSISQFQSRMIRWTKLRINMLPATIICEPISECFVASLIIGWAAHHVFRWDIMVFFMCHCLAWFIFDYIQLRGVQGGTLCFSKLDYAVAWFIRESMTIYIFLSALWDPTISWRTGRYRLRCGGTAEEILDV

By IC50 is commonly meant the concentration that inhibits the measured activity by half. For the compound `CC(C)Oc1ccc(-c2cc3c(cc2F)[C@H](NC(=O)O[C@@H]2CN4CCC2CC4)C(C)(C)CC3)cc1Cl` [Example 193, (S)-quinuclidin-3-yl((R)-6-(3-chloro-4-isopropoxyphenyl)-7-fluoro-2,2-dimethyl-1,2,3,4-tetrahydronaphthalen-1-yl)carbamate], the IC50 in series [1] (Homo sapiens, Jurkat, 72 h) was determined as 6.75 nM; in series [3], 0.78 nM. In addition, in series [2], the Kp at 4 h came out at 3.46. For the same compound, the concentration at 4 h in series [2] (setting [4]) came to 3020 ng/g; in series [2] (setting [5]), 871 ng/mL.
With `Cc1ccc(-c2cc3c(cc2F)[C@H](NC(=O)O[C@@H]2CN4CCC2CC4)C(C)(C)C3)cc1Cl` [Example 84, (S)-quinuclidin-3-yl((R)-5-(3-chloro-4-methylphenyl)-6-fluoro-2,2-dimethyl-2,3-dihydro-1H-inden-1-yl)carbamate], the IC50 in series [1] (Homo sapiens, Jurkat, 72 h) worked out at 17.2 nM; in series [3] it was 0.29 nM. Further, the Kp at 4 h in series [2] was 7.23. The concentration at 4 h amounted to 4940 ng/g in series [2] (setting [4]) and 683 ng/mL in series [2] (setting [5]).
The like results for `Cc1cc(OC(C)C)ccc1-c1cc2c(cc1F)[C@H](NC(=O)O[C@@H]1CN3CCC1CC3)C(C)(C)C2` [Example 96, (S)-quinuclidin-3-yl((R)-6-fluoro-5-(4-isopropoxy-2-methylphenyl)-2,2-dimethyl-2,3-dihydro-1H-inden-1-yl)carbamate] were, in that order, 0.76 nM, 0.08 nM, 6.24, 5360 ng/g and 864 ng/mL.
For the compound `CCCOc1c(C)cc(-c2cc3c(cc2F)[C@H](NC(=O)O[C@@H]2CN4CCC2CC4)C(C)(C)C3)cc1C` [Example 64, (S)-quinuclidin-3-yl((R)-5-(3,5-dimethyl-4-propoxyphenyl)-6-fluoro-2,2-dimethyl-2,3-dihydro-1H-inden-1-yl)carbamate], the IC50 in series [1] (Homo sapiens, Jurkat, 72 h) came to 11.6 nM; in series [3], 3.92 nM. Also, the Kp at 4 h in series [2] came to 4.43. Further, the values for the concentration at 4 h in series [2] (setting [4]) and in series [2] (setting [5]) were 1040 ng/g and 234 ng/mL, respectively.
As to `COc1ccc(-c2ccc3c(c2)CCC(C)(C)[C@H]3NC(=O)O[C@@H]2CN3CCC2CC3)c(F)c1` [Example 151, (S)-quinuclidin-3-yl((R)-6-(2-fluoro-4-methoxyphenyl)-2,2-dimethyl-1,2,3,4-tetrahydronaphthalen-1-yl) carbamate], the IC50 in series [1] (read-out: IC50) turned out to be 5.2 nM. In series [2], the “Mean brain-plasma drug ratio at 4 hr” value stood at 2.04, the “Mean drug concentrations in brain tissue at 4 hr” value amounted to 2441.3 ng/g and the “Mean drug concentrations in plasma at 4 hr” value was 1196.4 ng/mL. The IC50 in series [3] (% GCS activity, A549 cell lysate, 37° C. for 90 minutes, read-out: IC50) came out at 0.49 nM.
On to `Cc1cc(-c2ccc3c(c2)CC(C)(C)[C@H]3NC(=O)O[C@@H]2CN3CCC2CC3)ccc1OC(C)C` [Example 34, (S)-quinuclidin-3-yl((R)-5-(4-isopropoxy-3-methylphenyl)-2,2-dimethyl-2,3-dihydro-1H-inden-1-yl)carbamate], for which the IC50 in series [1] (Homo sapiens, Jurkat, 72 h) worked out at 2.3 nM; in series [3] it was 1.31 nM. Also, the Kp at 4 h in series [2] is 14. Moreover, the concentration at 4 h in series [2] (setting [4]) stood at 10700 ng/g; in series [2] (setting [5]), 767 ng/mL.
On to `COc1cc(-c2ccc3c(c2)CC(C)(C)[C@H]3NC(=O)O[C@@H]2CN3CCC2CC3)ccc1OC(C)C` [Example 35, (S)-quinuclidin-3-yl((R)-5-(4-isopropoxy-3-methoxyphenyl)-2,2-dimethyl-2,3-dihydro-1H-inden-1-yl)carbamate], for which the IC50 in series [1] (Homo sapiens, Jurkat, 72 h) was 3.3 nM; in series [3], 2.22 nM. Moreover, the Kp at 4 h in series [2] was found to be 1.85. In addition, the concentration at 4 h in series [2] (setting [4]) came out at 2010 ng/g; in series [2] (setting [5]), 1080 ng/mL.
